The values that follow are results of earlier work, collected in article PMC9804730 (Diabetes, Obesity & Metabolism, 2022).

For data set [1] the following is noted: N- and C-terminal degradation.

Turning to “(D‐Arg^35)‐sea lamprey PYY (1–36) [SL‐PYY]”, the “effect on insulin secretion” value is on record as “insulinostatic”. In addition, the enzymatic stability result in data set [1] was “N‐ and C‐terminally enzyme‐resistant”. Moreover, the “effect on blood glucose levels in the acute setting” value (acute setting) is reported as “does not affect”.
